Results taken from US20080176810A1, “Use of 3, 4', 5-Trihydroxy-Stilbene-3-Beta-D-glucoside in Prepartion of Medicines For Treating and/or Preventing Ischemic Heart Disease” (SHENZHEN NEPTUNUS PHARMACEUTICAL CO., LTD., priority 2004, published 2008).

Test system: anesthetized dogs
Assay: Myocardial oxygen consumption, coronary flow, cardiac output in anesthetized dogs, iv
Assay type: in vivo
Conditions: c3-c8 5,15,30,60,90,120 min after administration; for cardiac output, x ± s / myocardial oxygen uptake, x ± s / coronary artery resistance, x ± s / myocardial oxygen consumption, x ± s / total peripheral resistance (TPR), x ± s: c2 0 min before
Description: Isosorbide Dinitrate control group were medicated by continuous intravenous infusion and other groups by intravenous injection.
The animals were anesthetised with 3% pentobarbital sodium iv at the dose of 30 mg/kg. Tracheal intubation was performed and SC-M5 anesthesia respirator (manufactured by Shanghai Medical Instrument Factory, frequency: 16˜18 per min, tidal volume: 350˜550 ml) was connected. Bilateral femoral arteries were separated for blood sampling and analyzing and measurement of mean blood pressure. Thoracotomy at the fourth intercostal space was performed to expose the heart and to open the pericardium to make pericardial hammock. Ascending aortic root and upper part of left branch of anterior descending coronary artery were dissociated to put respectively probes of electromagnetic flowmeter (MFV-1100/1200, made by Japanese Nihon Kohden Company) to measure cardiac output and coronary artery flow rate. Right jugular vein was separated for insertion of a cardiac catheter that was guided into coronary venous sinuses before fixation. Synchronously, blood was sampled by drawing from coronary sinus and femoral artery (0.5% heparin was added for anticoagulation). pO2 and pH were detected with a blood gas analyzer (DH-1830 Blood Gas Acid-base Analyze, Nanjing Ananalysis Apparatus Factor) and the values were converted to artery and venous oxygen content. After intravenous infusion of control solvent or the drug, constant infusion for all groups was completed with an electronic constant flow pump (SH-88AB Controllable Intravenous Injector made by Quanzhou Lizhong Electronic Medical Instrument Factory). Both artery and venous blood gas before administration or 5, 15, 30, 60, 90 and 120 min after administration was analyzed and mean blood pressure and cardiac output at 0, 5, 15, 30, 60, 90 and 120 min were observed.
Myocardial oxygen consumption(ml/min/100 g)=coronary flow ml/min/100 g×artery oxygen−coronary sinus oxygen ml %).
Myocardial oxygen uptake (%)=(artery oxygen ml %−coronary sinus oxygen ml %)/artery oxygen ml %
Total peripheral resistance of general circulation(dyn·s·cm−5)=mean arterial blood pressure[MAP(KPa)]×80/cardiac output[CO(L/min)]=mean arterial blood pressure[MAP(mmHg)]×10.6/cardiac output[CO(L/min)]
Coronary resistance[Kpa/ml/min]=mean arterial blood pressure[MAP(KPa)]/coronary artery flow.

[1] = TSG 5 mg/kg iv, before administration, 0 min
[2] = TSG 5 mg/kg iv, 5 min after administration
[3] = TSG 5 mg/kg iv, 15 min after administration
[4] = TSG 5 mg/kg iv, 30 min after administration
[5] = TSG 5 mg/kg iv, 60 min after administration
[6] = TSG 5 mg/kg iv, 90 min after administration
[7] = TSG 5 mg/kg iv, 120 min after administration
[8] = TSG 10 mg/kg iv, 0 min, before administration
[9] = TSG 10 mg/kg iv, 5 min after administration
[10] = TSG 10 mg/kg iv, 15 min after administration
[11] = TSG 10 mg/kg iv, 30 min after administration
[12] = TSG 10 mg/kg iv, 60 min after administration
[13] = TSG 10 mg/kg iv, 90 min after administration
[14] = TSG 10 mg/kg iv, 120 min after administration
[15] = TSG 10 mg/kg iv, before administration, 0 min

3,4′,5-trihydroxy-stilbene-3-β-D-glucoside [TSG]
cardiac output, x ± s [1]: 1.09 ± 0.14 L/min | myocardial oxygen uptake, x ± s [1]: 79.5 ± 6.93% | cardiac output, variation % [2]: 3.58 ± 2.00% | coronary artery resistance, variation % [2]: 3.03% | myocardial oxygen consumption, variation % [2]: −0.52 ± 1.59% | myocardial oxygen uptake, variation % [2]: 0.15% | total peripheral resistance (TPR), variation % [2]: −0.82 ± 2.72% | cardiac output, variation % [3]: 3.47 ± 0.97% | coronary artery resistance, variation % [3]: 2.18 ± 2.46% | total peripheral resistance (TPR), variation % [3]: 1.31 ± 2.04% | cardiac output, variation % [4]: 5.25 ± 2.62% | coronary artery resistance, variation % [4]: 0.02 ± 3.86% | myocardial oxygen consumption, variation % [4]: −0.59 ± 2.68% | myocardial oxygen uptake, variation % [4]: −5.76 ± 5.34 % | total peripheral resistance (TPR), variation % [4]: 0.90 ± 1.20% | cardiac output, variation % [5]: 6.05 ± 2.06 % | coronary artery resistance, variation % [5]: −3.62 ± 3.63% | myocardial oxygen consumption, variation % [5]: 0.68 ± 1.74% | myocardial oxygen uptake, variation % [5]: −6.24 ± 4.39 % | total peripheral resistance (TPR), variation % [5]: 0.20 ± 1.19% | cardiac output, variation % [6]: 5.98 ± 2.02 % | coronary artery resistance, variation % [6]: −4.03 ± 2.13% | myocardial oxygen consumption, variation % [6]: −0.91 ± 2.81% | myocardial oxygen uptake, variation % [6]: −5.51 ± 4.5 % | total peripheral resistance (TPR), variation % [6]: −1.59 ± 3.63% | cardiac output, variation % [7]: 4.86 ± 2.88% | coronary artery resistance, variation % [7]: −3.99 ± 3.34 % | total peripheral resistance (TPR), variation % [7]: −2.75 ± 3.55% | coronary artery resistance, x ± s [8]: 0.273 ± 0.032 Kpa/ml/min | myocardial oxygen consumption, x ± s [8]: 214.1 ± 6.66 mL/min.100 g^−1 | total peripheral resistance (TPR), x ± s [8]: 891.8 ± 93.4 dyn·s·cm^−5 | cardiac output, x ± s [9]: 1.13 ± 0.13 L/min | coronary artery resistance, x ± s [9]: 0.286 Kpa/ml/min | myocardial oxygen consumption, x ± s [9]: 211.0 ± 5.44 mL/min.100 g^−1 | myocardial oxygen uptake, x ± s [9]: 78.7% | total peripheral resistance (TPR), x ± s [9]: 890.5 ± 82.2 dyn·s·cm^−5 | cardiac output, x ± s [10]: 1.14 ± 0.14 L/min | coronary artery resistance, x ± s [10]: 0.278 ± 0.028 Kpa/ml/min | total peripheral resistance (TPR), x ± s [10]: 891.3 ± 78.1 dyn·s·cm^−5 | cardiac output, x ± s [11]: 1.16 ± 0.13 L/min | coronary artery resistance, x ± s [11]: 0.274 ± 0.035 Kpa/ml/min | myocardial oxygen consumption, x ± s [11]: 208.0 ± 5.3 mL/min.100 g^−1 | myocardial oxygen uptake, x ± s [11]: 71.3 ± 5.28% | total peripheral resistance (TPR), x ± s [11]: 903.4 ± 76.9 dyn·s·cm^−5 | cardiac output, x ± s [12]: 1.18 ± 0.14 L/min | coronary artery resistance, x ± s [12]: 0.267 ± 0.037 Kpa/ml/min | myocardial oxygen consumption, x ± s [12]: 210.3 ± 6.32 mL/min.100 g^−1 | myocardial oxygen uptake, x ± s [12]: 71.7 ± 5.71 % | total peripheral resistance (TPR), x ± s [12]: 878.7 ± 90.9 dyn·s·cm^−5 | cardiac output, x ± s [13]: 1.18 ± 0.15 L/min | coronary artery resistance, x ± s [13]: 0.270 ± 0.040 Kpa/ml/min | myocardial oxygen consumption, x ± s [13]: 209.1 ± 6.38 mL/min.100 g^−1 | myocardial oxygen uptake, x ± s [13]: 72.4 ± 5.51 % | total peripheral resistance (TPR), x ± s [13]: 872.9 ± 98.6 dyn·s·cm^−5 | cardiac output, x ± s [14]: 1.15 ± 0.16 L/min | coronary artery resistance, x ± s [14]: 0.263 ± 0.038 Kpa/ml/min | total peripheral resistance (TPR), x ± s [14]: 863.7 ± 80.0 dyn·s·cm^−5 | cardiac output, x ± s [15]: 1.08 ± 0.15 L/min | myocardial oxygen uptake, x ± s [15]: 80.0 ± 6.55% | cardiac output, variation % [9]: 4.60 ± 3.19% | coronary artery resistance, variation % [9]: 4.63% | myocardial oxygen consumption, variation % [9]: −1.45 ± 1.13% | myocardial oxygen uptake, variation % [9]: −1.46% | total peripheral resistance (TPR), variation % [9]: 0.02 ± 4.07% | cardiac output, variation % [10]: 5.74 ± 2.02 % | coronary artery resistance, variation % [10]: 1.79 ± 3.25% | total peripheral resistance (TPR), variation % [10]: 0.09 ± 2.25% | cardiac output, variation % [11]: 7.43 ± 3.40 % | coronary artery resistance, variation % [11]: 0.21 ± 1.44% | myocardial oxygen consumption, variation % [11]: −2.77 ± 3.75% | myocardial oxygen uptake, variation % [11]: −10.7 ± 4.01 % | total peripheral resistance (TPR), variation % [11]: 1.49 ± 3.81% | cardiac output, variation % [12]: 9.41 ± 4.82 % | coronary artery resistance, variation % [12]: −2.64 ± 2.78% | myocardial oxygen consumption, variation % [12]: −1.75 ± 3.51% | myocardial oxygen uptake, variation % [12]: −10.3 ± 5.25 % | total peripheral resistance (TPR), variation % [12]: −1.42 ± 3.68% | cardiac output, variation % [13]: 9.05 ± 2.24 % | coronary artery resistance, variation % [13]: −1.69 ± 4.78% | myocardial oxygen consumption, variation % [13]: −2.28 ± 3.5% | myocardial oxygen uptake, variation % [13]: −9.32 ± 3.22 % | total peripheral resistance (TPR), variation % [13]: −2.16 ± 2.50% | cardiac output, variation % [14]: 6.53 ± 2.43 % | coronary artery resistance, variation % [14]: −4.10 ± 5.44 % | total peripheral resistance (TPR), variation % [14]: −3.00 ± 4.04%
